The values below come from patent US6800465B2, “D-hydantoinase from Ochrobactrum anthropi” (priority 2001, dated 2004).

Series [1] has as its system hydantoinase. Put plainly: Effect of substrate concentration on rate of conversion by glutaraldehyde treated cells. The series is classed as biochemical, Ochrobactrum anthropi. As to conditions: pH 8.8, 42° C.; for % Conversion: 6 hours.
Procedure: Incubations were in 200 mM TAPS pH 8.8, 42° C. for 6 hours, and pH adjustments were made back to normal at least every hour.
Series [2] concerns hydantoinase. Kind of series: Substrate specificity of purified recombinant hydantoinase. The series is classed as biochemical, Ochrobactrum anthropi. As to conditions: purified recombinant enzyme from E. coli BL21, compound as substrate. The protocol:
E. coli BL21 containing the hydantoinase gene was grown as described in example 4.2. The cells were centrifuged and washed with 100 mM carbonate buffer pH 9.0 and resuspended in the same buffer and ruptured by sonication. The enzyme was purified as described in example 2. The purified enzyme was tested for substrate specificity with various hydantoins as substrate.

The subject of series [3] is hydantoinase. Put plainly: Effect of glutaraldehyde and acetone treatment of whole cells on hydantoinase activity. The series is classed as biochemical, Ochrobactrum anthropi. As to conditions: treated whole cells; 10 mg/ml D,L-p-hydroxyphenyl hydantoin, pH 8.5, 42° C., 4 hours; Control (buffer only) = 1. The protocol: Washed cell suspension 0.5 ml aliquots of culture was treated with 0.5 ml glutaraldehyde (G.A.) final concentration 2% in phosphate buffer pH 7.0, or with 0.5 ml G.A. 2% in phosphate buffer and 1 ml acetone, or with 0.5 ml acetone alone at room temperature for 10 minutes. The treated cells were washed with 10 ml 0.9% saline and then with saline +1 mg/ml ammonium sulfate and resuspended in 1 ml 100 mM TAPS buffer pH 8.5. Resuspended cell suspensions were incubated with 10 mg/ml D,L-p-hydroxyphenyl hydantoin in 100 mM TAPS pH 8.5 (final volume 800 μl) at 42° C. for 4 hours. Reactions were terminated with 200 μl TCA 12% and assayed.

Series [4] deals with hydantoinase. Put plainly: Metal ion requirements of purified hydantoinase. The series is classed as biochemical, Ochrobactrum anthropi. The note with it: hydantoin as substrate, metal ion at 100 mM concentration. The arrangement: Specific activity: unit not given here. The protocol: Purified hydantoinase was assayed with hydantoin with the addition of the various metal ions at 100 mM concentration.

Series [5] can be described thus: Stability of enzyme at pH 8.8, 9.3 and 9.8. It is filed as biochemical, Ochrobactrum anthropi. The note with it: then assayed at pH 8.8, 42° C. The protocol: Glutaraldehyde treated cells from pH profile study were held at pH 8.8, 9.3 and 9.8 for about 4 hours. Solids were washed, resuspended in 25 mM TAPS pH 8.8 and 10 mg/ml D,L-p-hydroxyphenyl hydantoin and incubated at 42° C. for 4 hours. […] Optimum pH of activity at 8.8 in pH profile study was probably due to greater enzyme stability at pH 8.8 rather than pH 9.3 or 9.8.

Series [6] is described as follows: Specific activity of purified hydantoinase. It is filed as biochemical, Ochrobactrum anthropi. As to conditions: active band eluant from preparative native gel. Here is the method: Active band eluant from preparative native gel was assayed and protein determined by Pierce Microtiter assay protocol using BSA standard. Specific activity was determined at greater than 4 IU per mg of protein.

A short description of series [7]: PI value of hydantoinase by IEF-PAGE. It is filed as physicochemical, Ochrobactrum anthropi. As to conditions: IEF-PAGE gel, pH range of 3-9. Here is the method:
Active band eluant from preparative native gel was run on the Phast System IEF-PAGE gel with a pH range of 3-9 using low MW protein markers and the gel was silver stained. PI of active band protein was determined at approximately 4.5.

For the molecule `O=C1NC(=O)C(c2ccc(O)cc2)N1` (racemic) [D,L-p-hydroxyphenyl hydantoin], the product formed in series [1] (substrate 5 mg/ml, 2¾ hr) is 1.9 mg/mL; in series [1] (substrate 5 mg/ml, 30 min), “.56 mg/mL”; in series [1] (substrate 5 mg/ml, 60 min), 1.0 mg/mL; in series [1] (substrate 5 mg/ml, 4 hr) it was 2.1 mg/mL; in series [1] (substrate 5 mg/ml, 6 hr) it was 2.2 mg/mL; in series [1] (substrate 10 mg/ml, 2¾ hr), 3.4 mg/mL. For the same molecule, the product formed result was “.75 mg/mL” in series [1] (substrate 10 mg/ml, 30 min); 1.4 mg/mL in series [1] (substrate 10 mg/ml, 60 min); 4.0 mg/mL in series [1] (substrate 10 mg/ml, 4 hr); 4.4 mg/mL in series [1] (substrate 10 mg/ml, 6 hr); 4.0 mg/mL in series [1] (substrate 20 mg/ml, 2¾ hr); “.82 mg/mL” in series [1] (substrate 20 mg/ml, 30 min). In addition, the product formed in series [1] (substrate 20 mg/ml, 60 min) is 1.5 mg/mL; in series [1] (substrate 20 mg/ml, 4 hr), 6.2 mg/mL; in series [1] (substrate 20 mg/ml, 6 hr), 7.7 mg/mL; in series [1] (substrate 50 mg/ml, 2¾ hr) it was 4.2 mg/mL; in series [1] (substrate 50 mg/ml, 30 min), “.95 mg/mL”; in series [1] (substrate 50 mg/ml, 60 min), 1.6 mg/mL. Moreover, the product formed in series [1] (substrate 50 mg/ml, 4 hr) was 6.3 mg/mL; in series [1] (substrate 50 mg/ml, 6 hr), 9.2 mg/mL. Moreover, the “% Conversion” value is 40% in series [1] (substrate 5 mg/ml), 40% in series [1] (substrate 10 mg/ml), 35% in series [1] (substrate 20 mg/ml) and 17% in series [1] (substrate 50 mg/ml).
As for `O=C1CNC(=S)N1` [2-thio hydantoin], the “Specific activity” value in series [2] came to 4.3 IU/mg.
On the same count and under the same terms, the result for `CC1NC(=O)NC1=O` (centres unmarked) [5-methyl hydantoin] reads 10.6 IU/mg.
Take `CC(C)=O` [Acetone, acetone]: the “Relative Activity” value in series [3] was 2.8.
Turning to `[Ca+2]` [Ca (II)], the Specific activity in series [4] is 3.6.
On the same count and under the same terms, the result for `[Co+2]` [Co (II)] reads 3.6; that for `[Cu+2]` [Cu (II)], 1.2.
As for `O=C(O)CC1NC(=O)NC1=O` (centres unmarked) [D,L hydantoin 5-acetic acid], the “Specific activity” value in series [2] came to 1.8 IU/mg.
`[Fe+2]` [Fe (II)]: in series [4], the Specific activity came to 9.3 and the “effect on the activity of the enzyme” value is reported as “stimulate the activity”.
With `[Fe+3]` [Fe (III)], the Specific activity in series [4] is 3.8.
Regarding `O=CCCCC=O` [Glutaraldehyde, glutaraldehyde], in series [3], the “Relative Activity” value is 1.2.
As for `O=C1CNC(=O)N1` [Hydantoin], in series [2], the “Specific activity” value worked out at 7.5 IU/mg.
As for `[Mg+2]` [Mg (II)], the Specific activity in series [4] worked out at 5.2.
For the molecule `[Mn+2]` [Mn (II)], in series [4], the Specific activity was 7.1 and the “effect on the activity of the enzyme” value is “stimulate the activity”.
Molecule `[Ni+2]` [Ni (II)] returned a Specific activity in series [4] of 3.6.
On the same count and under the same terms, then `O=C(O)CN(CCN(CC(=O)O)CC(=O)O)CC(=O)O` [None (EDTA)], with 4.8.
For `O=c1cc[nH]c(=O)[nH]1` [Uracil], the “Specific activity” value in series [2] came out at 1.8 IU/mg.
For the molecule `[Zn+2]` [Zn (II)], in series [4], the Specific activity is given as 1.8.
As for Hydroxymethyl 5,5-dimethyl hydantoin, the “Specific activity” value in series [2] is recorded as 5.6 IU/mg.
p-hydroxymethyl hydantoin: in series [2], the “Specific activity” value is given as 1.9 IU/mg.

B1: hydantoinase: D-hydantoinase from Ochrobactrum anthropi, SEQ ID NO: 2; in Table 3 assayed in glutaraldehyde treated cells (protein, listed as Ochrobactrum anthropi)
chain: MAKVIKGGTVITADRTFKADVLIEGEKIVAVGDNLSGDEVIDASGCYIMPGGIDPHTHLQMPFMGTYSSDDFDTGTAAALAGGTTMVVDFVLPGSEGNLLEALQEWFQKAGKARTDYSFHMAITGWNERTFNEMAEVVKRGINTFKHFMAYKGALMVNDDEMFASFQRCAELGAMPLVHAENGDIVAQLQAKLMAEGNDGPEAHAYSRPPEVEGEATNRAIMIADQAGVPLYVVHVSCEQSHEAIRRARQKGMRVFGEPLIQHLTLDESEYHNRDWDYAARRVMSPPFRDKANQDSLWAGLAAGSLQCVATDHCAFTTEQKRYGIGNFTKIPNGTGGLEERMPVLWSRGVRTGRLTPNEFVAVTSTNIAKILNIYPQKGAVLPGADADLVIWDPEATRKVSAKTQHSSIDYNVFEGFELKGLPKMTLSRGRVAFDKGNVTAEPGDGRFIEREPNGAVNRALSQWKEIVAPRKVERSAEHMPIGV
B1: the “Relative Activities” value in series [5] (held at pH 8.8 for about 4 hours) worked out at 1.75; in series [5] (held at pH 9.3 for about 4 hours), 1.17; in series [5] (held at pH 9.8 for about 4 hours), 0.62. Also, the Specific activity result in series [6] is on record as “greater than 4 IU per mg of protein”. Also, the PI entry in series [7] is listed as “approximately 4.5”.
